Experimental data reported in PMC10141580, “Cyclic Dichalcogenides Extend the Reach of Bioreductive Prodrugs to Harness Thiol/Disulfide Oxidoreductases: Applications to seco-Duocarmycins Targeting the Thioredoxin System” (ACS Central Science, 2023).
“And” between values parts separate entries of the source, which are not always exact repeats. Equal values may be shown once. Read-outs that look alike come from different tables or passages of the source.

Tested on: panel of 140 standard cancer cell lines
Experiment: ProliFiler-140 cancer cell line screen (CellTiterGlo, 72 h)
Format: cell-based
Settings: for IC50: Homo sapiens
Procedure: Incubations were performed for 72 h before automated viability readout with CellTiterGlo (Figure 8).
End of Figure S11 (part 5 of 5): ProliFiler-140 cancer cell line screening for cytotoxicity of the prodrugs.
8-data-point dose response curves from CellTiter-Glo® viability readout.
ProliFiler-140 cell line panel part V

Compound: COc1cc2cc(C(=O)N3C[C@@H](CCl)c4c3cc(OC(=O)N3CCN(C(=O)CCC(=O)N5CCN(C)CC5)[C@H]5CSSC[C@H]53)c3ccccc43)[nH]c2c(OC)c1OC [P-SS66C-CBI-TMI]
- IC50 (KG-1a, read-out: IC50 [M] (ProliFiler-140), KG-1 a (Blood)): 1.07e-07 M
- IC50 (KMS-12-BM, read-out: IC50 [M] (ProliFiler-140), KMS-12-BM (Blood)): 3.3e-08 M
- IC50 (LN-229, read-out: IC50 [M] (ProliFiler-140), LN229 (Brain)): 1.33e-07 M
- IC50 (LNCaP, read-out: IC50 [M] (ProliFiler-140), LnCap (Prostate)): 2.7e-08 M
- IC50 (LoVo, read-out: IC50 [M] (ProliFiler-140), LOVO (Colon)): 1.93e-08 M
- IC50 (MCF7, MCF-7): 3.1e-08 M
- IC50 (MCF7, read-out: IC50 [M] (ProliFiler-140), MCF-7 (Breast)): 3.1e-08 M
- IC50 (MDA-MB-231, read-out: IC50 [M] (ProliFiler-140), MDA MB 231 (Breast)): 1.36e-07 M
- IC50 (MDA-MB-435, MDA MB 435 (Skin), read-out: IC50 [M] (ProliFiler-140)): 1.3e-07 M
- IC50 (MDA-MB-468, MDA-MB-468): 1.9e-08 M
- IC50 (MDA-MB-468, read-out: IC50 [M] (ProliFiler-140), MDA-MB-468 (Breast)): 1.9e-08 M
- IC50 (MEC1, read-out: IC50 [M] (ProliFiler-140), MEC-1 (Blood)): 1.1e-08 M
- IC50 (MIA PaCa-2, read-out: IC50 [M] (ProliFiler-140), Mia PaCA 2 (Pancreas)): 8.56e-08 M
- IC50 (MKN-1, read-out: IC50 [M] (ProliFiler-140), MKN-1 (Stomach)): 1.4e-07 M
- IC50 (MKN-45, read-out: IC50 [M] (ProliFiler-140), MKN-45 (Stomach)): 8.2e-08 M
- IC50 (MOLM-13, read-out: IC50 [M] (ProliFiler-140), MOLM-13 (Blood)): 5.3e-09 M
- IC50 (MOLT-4, read-out: IC50 [M] (ProliFiler-140), MOLT-4 (Blood)): 8.6e-09 M
- IC50 (MV4-11, read-out: IC50 [M] (ProliFiler-140), MV4-11 (Blood)): 1.5e-09 M
- IC50 (NALM-6, read-out: IC50 [M] (ProliFiler-140), NALM-6 (Blood)): 2.47e-09 M
- IC50 (NCI-H82, read-out: IC50 [M] (ProliFiler-140), NCI-H82 (Lung)): 8.8e-08 M
- IC50 (NCI-H292, read-out: IC50 [M] (ProliFiler-140), NCI-H292 (Lung)): 3.8e-08 M
- IC50 (NCI-H441, read-out: IC50 [M] (ProliFiler-140), NCI-H441 (Lung)): 5.05e-08 M
- IC50 (NCI-H460, read-out: IC50 [M] (ProliFiler-140), H460 (Lung)): 5.5e-09 M
- IC50 (NCI-H838, read-out: IC50 [M] (ProliFiler-140), NCI-H838 (Lung)): 7.4e-08 M
- IC50 (NCI-H1048, read-out: IC50 [M] (ProliFiler-140), NCI-H1048 (Lung)): 4e-09 M
- IC50 (NCI-H1299, read-out: IC50 [M] (ProliFiler-140), H1299 (Lung)): 5.38e-08 M
- IC50 (NCI-H1437, read-out: IC50 [M] (ProliFiler-140), NCI-H1437 (Lung)): 1.85e-08 M
- IC50 (NCI-H1563, read-out: IC50 [M] (ProliFiler-140), NCI-H1563 (Lung)): 1.1e-07 M
- IC50 (NCI-H1573, read-out: IC50 [M] (ProliFiler-140), NCI-H1573 (Lung)): 9e-08 M
- IC50 (NCI-H1581, read-out: IC50 [M] (ProliFiler-140), NCI-H1581 (Lung)): 4.66e-08 M
- IC50 (NCI-H1703, read-out: IC50 [M] (ProliFiler-140), NCI-H1703 (Lung)): 5.1e-08 M
- IC50 (NCI-H1838, read-out: IC50 [M] (ProliFiler-140), NCI-H1838 (Lung)): 7.7e-08 M
- IC50 (NCI-H2009, read-out: IC50 [M] (ProliFiler-140), NCI-H2009 (Lung)): 2.66e-08 M
- IC50 (NCI-H2228, read-out: IC50 [M] (ProliFiler-140), H2228 (Lung)): 4.53e-08 M
- IC50 (NCI-H2286, read-out: IC50 [M] (ProliFiler-140), NCI-H2286 (Lung)): 1.7e-08 M
- IC50 (NCI-N87, read-out: IC50 [M] (ProliFiler-140), NCI-N87 (Stomach)): 7.5e-08 M
- IC50 (OCI-AML-3, read-out: IC50 [M] (ProliFiler-140), OCI-AML3 (Blood)): 1.3e-08 M
- IC50 (OCI-AML-5, read-out: IC50 [M] (ProliFiler-140), OCI-AML5 (Blood)): 6e-09 M
- IC50 (OCI-LY19, read-out: IC50 [M] (ProliFiler-140), OCI-LY19 (Blood)): 2.83e-09 M
- IC50 (OPM-2, read-out: IC50 [M] (ProliFiler-140), OPM-2 (Blood)): 2.61e-08 M
- IC50 (OVCAR-3, read-out: IC50 [M] (ProliFiler-140), OVCAR-3 (Ovary)): 7.9e-08 M
- IC50 (P31-FUJ, read-out: IC50 [M] (ProliFiler-140), P31/FUJ (Blood)): 2.3e-08 M
- IC50 (PANC-1, read-out: IC50 [M] (ProliFiler-140), PANC-1 (Pancreas)): 2e-07 M
- IC50 (RL95-2, read-out: IC50 [M] (ProliFiler-140), RL95-2 (Endometrium)): 1.25e-07 M
- IC50 (RPMI-8226, RPMI 8226): 1.2e-08 M
- IC50 (RPMI-8226, read-out: IC50 [M] (ProliFiler-140), RPMI 8226 (Blood)): 1.19e-08 M
- IC50 (SAOS-2, read-out: IC50 [M] (ProliFiler-140), Saos-2 EC (Bone)): 6.63e-08 M
- IC50 (SCLC-21H, read-out: IC50 [M] (ProliFiler-140), SCLC-21H (Lung)): 2.56e-08 M
- IC50 (SJSA-1, read-out: IC50 [M] (ProliFiler-140), SJSA-1 (Bone)): 9.77e-08 M
- IC50 (SK-BR-3, read-out: IC50 [M] (ProliFiler-140), SK-BR-3 (Breast)): 4.2e-08 M
- IC50 (SK-ES1, read-out: IC50 [M] (ProliFiler-140), SK-ES-1 (Bone)): 2.71e-09 M
- IC50 (SK-LU-1, read-out: IC50 [M] (ProliFiler-140), SK-LU-1 (Lung)): 2.3e-08 M
- IC50 (SK-MEL3, read-out: IC50 [M] (ProliFiler-140), SK-MEL-3 (Skin)): 1.6e-07 M
- IC50 (SK-N-FI, read-out: IC50 [M] (ProliFiler-140), SK-N-FI (Brain)): 1.39e-07 M
- IC50 (SK-N-MC, read-out: IC50 [M] (ProliFiler-140), SK-N-MC (Brain)): 1.6e-09 M
- IC50 (SK-N-SH, read-out: IC50 [M] (ProliFiler-140), SK-N-SH (Brain)): 1.1e-07 M
- IC50 (SK-OV-3, read-out: IC50 [M] (ProliFiler-140), SK-OV3 (Ovary)): 3.72e-08 M
- IC50 (SNU1, read-out: IC50 [M] (ProliFiler-140), SNU-1 (Stomach)): 2.3e-08 M
- IC50 (SNU-16, read-out: IC50 [M] (ProliFiler-140), SNU-16 (Stomach)): 6.23e-08 M
- IC50 (SU-DHL-5, read-out: IC50 [M] (ProliFiler-140), SU-DHL-5 (Blood)): 2.6e-09 M
- IC50 (SW480, read-out: IC50 [M] (ProliFiler-140), SW480 (Colon)): 5.51e-08 M
- IC50 (SW948, read-out: IC50 [M] (ProliFiler-140), SW948 (Colon)): 1.43e-07 M
- IC50 (SW1783, read-out: IC50 [M] (ProliFiler-140), SW-1783 (Brain)): 4.85e-08 M
- IC50 (SW-620, SW620): 1.5e-07 M
- IC50 (SW-620, read-out: IC50 [M] (ProliFiler-140), SW620 (Colon)): 1.53e-07 M
- IC50 (SiHa, read-out: IC50 [M] (ProliFiler-140), SiHa (Ovary)): 1.13e-07 M
- IC50 (T47D, T-47D): 9.8e-08 M
- IC50 (T47D, read-out: IC50 [M] (ProliFiler-140), T-47D (Breast)): 9.8e-08 M
- IC50 (T98G, read-out: IC50 [M] (ProliFiler-140), T98G (Brain)): 8.08e-08 M
- IC50 (U2OS, read-out: IC50 [M] (ProliFiler-140), U2OS (Bone)): 3.19e-08 M
- IC50 (U-87 MG, read-out: IC50 [M] (ProliFiler-140), U87MG (Brain)): 1.5e-07 M
- IC50 (U-118-MG, read-out: IC50 [M] (ProliFiler-140), U118MG (Brain)): 1.86e-07 M
- IC50 (U-251, read-out: IC50 [M] (ProliFiler-140), U251MG (Brain)): 1.2e-07 M
- IC50 (U-266, read-out: IC50 [M] (ProliFiler-140), U-266 (Blood)): 9.38e-09 M
- IC50 (U-937, read-out: IC50 [M] (ProliFiler-140), U-937 (Blood)): 1.15e-08 M
- IC50 (ZR-75-1, read-out: IC50 [M] (ProliFiler-140), ZR-75-1 (Breast)): 3.07e-07 M
- Reductive Activation Index (Hs 746T (Stomach)): 13
- Reductive Activation Index (HuH7 (Liver)): 6.45
- Reductive Activation Index (Hutu 80 (Duodenum)): 5.62 and 5.6
- Reductive Activation Index (JIMT-1 (Breast)): 15
- Reductive Activation Index (K562 (Blood)): 8.6
- Reductive Activation Index (KARPAS 299 (Blood)): 6.55
- Reductive Activation Index (KG-1 (Blood)): 3.24
